Results: US10759797B2, “Pharmaceutically acceptable salt of EGFR inhibitor, crystal form thereof, preparation method therefor and application thereof” (Wuxi Shuangliang Biotechnology Co., Ltd., priority 2017, dated 2020)
Structures can show the parent of a compound that is named as a salt.

Key:
Type in all cases: physicochemical
[1] = Hygroscopicity study of crystal forms (Chinese Pharmacopoeia 2015, part 4, appendix 9103)
Method: Hygroscopicity comparison study was carried out for various pharmaceutically acceptable salts of EGFR inhibitor present in the form of crystal in Examples 1 to 3 and 5 to 6, the amorphous EGFR inhibitor phosphate salt in Example 4, and the EGFR inhibitor present in a free base form. Tests were conducted according to the method in the Pharmacopoeia of the People's Republic of China, 2015 edition, part 4, appendix 9103 (temperature: 25° C.±1° C., relative humidity: 80%±2%), and the results were as shown in Table 6.
With regard to the description of hygroscopic properties and definition of hygroscopic weight gain, refer to the Pharmacopoeia of the People's Republic of China, 2015 edition, part 4, appendix 9103, experimental guideline of drug hygroscopicity, herein descried by way of example as follows.
Deliquescence: absorb enough water to form a liquid.
Very hygroscopic: hygroscopic weight gain […] 15%.
Hygroscopic: hygroscopic weight gain less than 15% but not less than 2%.
Non- or almost non-hygroscopic: hygroscopic weight gain less than 0.2%.

[2] = Solubility study in artificial gastric fluid (saturated solutions, HPLC linear equation; Pharmacopoeia and BCS classification)
Text: (§1) Various pharmaceutically acceptable salts of EGFR inhibitor present in form of crystal in Examples 1 to 3 and 5 to 6 were classified with reference to the relevant requirements of the Pharmacopoeia of the People's Republic of China and the Bio-pharmaceutics Classification System (BCS).
(§2) (a) Relevant Requirements of Solubility in the Pharmacopoeia of the People's Republic of China, 2015 Edition, General Notices:
(§3) (b) Relevant Requirements of Solubility in BCS: Do=(Mo/Vo)/Cs;
(§4) wherein Do: dose index; Mo: highest single dose of the drug (with reference to the relevant dose of osimertinib, tentatively set to 80 mg); Vo: the volume of body fluid required for dissolving the drug (about 250 ml); Cs: saturated solubility of the drug;
(§5) if Do≤1, solubility is high; and if Do>1, solubility is low.
(§6) Using an EGFR inhibitor free base as a control, linear regression was carried out by plotting peak area versus concentration, and the corresponding linear equation was obtained in the range of 0.025 to 1.5 mg/ml: A=19775.0411c+2.4256, r=1.0000.
Artificial gastric fluid was used as solvent. An appropriate amount of the EGFR inhibitor mesylate salt (crystal form A), p-toluenesulfonate salt (crystal form B), phosphate salt (crystal form C), phosphate salt (amorphous), hydrochloride salt (crystal form C), and citrate salt (crystal form E) prepared in Examples 1 to 6 was weighed, and prepared into saturated solutions. Samples were taken after standing for 1 hour, 4 hours, and 24 hours, respectively, and the concentration of each sample in saturation state was calculated according to the linear equation.

[3] = One month accelerated stability study at 40° C./75% RH (shape, purity, XRPD)
Method: The six pharmaceutically acceptable salts of EGFR inhibitor in Examples 1 to 6 were placed in a condition of 40° C./75% RH, and a one month accelerated stability study was carried out. Samples were taken at the end of 0 and 1 month respectively, and emphasis was placed upon the shape, purity and crystal form stability (XRPD pattern) of the samples.
Stable refers to no occurrence of degradation and no detection of transformation to other crystal forms by analytical means such as chromatography and XRPD.

[4] = Solubility study in water (saturated solutions, HPLC linear equation; Pharmacopoeia and BCS classification)
Text: as §1, §2, §3, §4, §5, §6
Water was used as solvent. An appropriate amount of the EGFR inhibitor mesylate salt, p-toluenesulfonate salt, phosphate salt, hydrochloride salt and citrate salt prepared in Examples 1 to 3 and 5 to 6 was weighed, and prepared into saturated solutions. Samples were taken after standing for 1 hour, 4 hours, and 24 hours, respectively, and the concentration of each sample in saturation state was calculated according to the linear equation.

[5] = as above; conditions: in water and artificial gastric fluid

Hygroscopicity as compared with that of the EGFR inhibitor present in a free base form ([1]; 25° C./RH 80%): higher hygroscopicity
Weight gain over 6 hours (%) ([1]; 25° C.±1° C., relative humidity 80%±2%, 6 hours): 9.15%
Weight gain over 24 hours (%) ([1]; 25° C.±1° C., relative humidity 80%±2%, 24 hours): 11.98%
Hygroscopicity ([1]; 25° C.±1° C., relative humidity 80%±2%, Pharmacopoeia class): hygroscopic
Pharmacopoeia of the People's Republic of China Solubility level ([2]; artificial gastric fluid): freely soluble
Solubility in artificial gastric fluid, 1 h ([2]; artificial gastric fluid, saturated solution, standing 1 hour): 156.70 mg/mL
Solubility in artificial gastric fluid, 4 h ([2]; artificial gastric fluid, saturated solution, standing 4 hours): 159.14 mg/mL
Solubility in artificial gastric fluid, 24 h ([2]; artificial gastric fluid, saturated solution, standing 24 hours): 147.08 mg/mL
BCS level (Do) ([2]; artificial gastric fluid, Do=(Mo/Vo)/Cs, Mo 80 mg, Vo about 250 ml, Do≤1 solubility high, Do>1 low): 0.0022 < 1
Degradation in the solubility study ([2]; water and artificial gastric fluid, up to 24 hours): no significant degradation
Appearance, 1 month ([3]; after 1 month at 40° C./75% RH): tan solid
Purity (%), 1 month ([3]; after 1 month at 40° C./75% RH): 98.5%
XRPD pattern (0 month versus 1 month) ([3]; after 1 month at 40° C./75% RH): consistent
Appearance, 0 month ([3]; start of study (0 month)): tan solid
Purity (%), 0 month ([3]; start of study (0 month)): 98.5%
Pharmacopoeia of the People's Republic of China Solubility level [4]: freely soluble
BCS level (Do) ([4]; Do=(Mo/Vo)/Cs, Mo 80 mg, Vo about 250 ml, Do≤1 solubility high, Do>1 low): 0.0023 < 1
Solubility in water, 1 h ([4]; saturated solution, standing 1 hour): 107.15 mg/mL
Solubility in water, 4 h ([4]; saturated solution, standing 4 hours): 133.32 mg/mL
Solubility in water, 24 h ([4]; saturated solution, standing 24 hours): 137.13 mg/mL
Solubility with reference to Pharmacopoeia solubility classification [5]: high
Compound: C=CC(=O)Nc1cc(Nc2nccc(-c3cn(C)c4cccnc34)n2)c(OC)cc1N(C)CCN(C)C [phosphate salt (crystal form C)]
Solubility in artificial gastric fluid compared with water ([2]; artificial gastric fluid versus water): higher solubility in artificial gastric fluid than in water
